Structures can show the parent of a compound that is named as a salt.
Assays:
human α1b-adrenoceptor = biological target: T1, human α1b-adrenoceptor (Homo sapiens, UniProt P35368); assay: [3H]Prazosin binding, cloned human α1b-adrenoceptor in CHO cell membranes; settings: CHO membranes; read-out: Affinity (Ki) α1b, human cloned receptors
T1 construct: expressed in transfected cells
T1 sequence (P35368 1-520): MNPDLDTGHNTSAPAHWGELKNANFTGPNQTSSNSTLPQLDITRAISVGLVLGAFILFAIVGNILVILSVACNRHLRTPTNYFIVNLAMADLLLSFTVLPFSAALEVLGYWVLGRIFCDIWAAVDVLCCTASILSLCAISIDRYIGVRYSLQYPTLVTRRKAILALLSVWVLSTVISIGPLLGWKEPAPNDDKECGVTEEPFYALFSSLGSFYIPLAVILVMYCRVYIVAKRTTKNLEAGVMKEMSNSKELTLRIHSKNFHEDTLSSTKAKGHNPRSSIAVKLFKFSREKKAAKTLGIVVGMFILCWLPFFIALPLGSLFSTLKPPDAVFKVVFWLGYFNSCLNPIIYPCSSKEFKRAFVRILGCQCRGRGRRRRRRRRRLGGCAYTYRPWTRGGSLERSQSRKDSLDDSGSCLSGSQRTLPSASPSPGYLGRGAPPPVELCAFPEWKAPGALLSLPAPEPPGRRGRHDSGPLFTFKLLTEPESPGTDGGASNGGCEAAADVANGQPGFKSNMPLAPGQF
Experimental: (§1) Binding to cloned human α1-adrenoceptor subtypes was performed in membranes from CHO cells (Chinese hamster ovary cells) transfected by electroporation with DNA expressing the gene encoding each α1-adrenoceptor subtype. […] The incubation was stopped by addition of ice-cold Tris buffer and rapid filtration through 0.2% polyethyleneimine-pretreated Whatman GF/B or Schleicher & Schuell GF52 filters.
(§2) Data are expressed as mean Ki. All patents and other references cited herein are incorporated by reference in their entirety.

human α1d-adrenoceptor = biological target: T2, human α1d-adrenoceptor (Homo sapiens, UniProt P25100); assay: [3H]Prazosin binding, cloned human α1d-adrenoceptor in CHO cell membranes; settings: read-out: Affinity (Ki) α1d, human cloned receptors
T2 construct: expressed in transfected cells
T2 sequence (P25100 1-572): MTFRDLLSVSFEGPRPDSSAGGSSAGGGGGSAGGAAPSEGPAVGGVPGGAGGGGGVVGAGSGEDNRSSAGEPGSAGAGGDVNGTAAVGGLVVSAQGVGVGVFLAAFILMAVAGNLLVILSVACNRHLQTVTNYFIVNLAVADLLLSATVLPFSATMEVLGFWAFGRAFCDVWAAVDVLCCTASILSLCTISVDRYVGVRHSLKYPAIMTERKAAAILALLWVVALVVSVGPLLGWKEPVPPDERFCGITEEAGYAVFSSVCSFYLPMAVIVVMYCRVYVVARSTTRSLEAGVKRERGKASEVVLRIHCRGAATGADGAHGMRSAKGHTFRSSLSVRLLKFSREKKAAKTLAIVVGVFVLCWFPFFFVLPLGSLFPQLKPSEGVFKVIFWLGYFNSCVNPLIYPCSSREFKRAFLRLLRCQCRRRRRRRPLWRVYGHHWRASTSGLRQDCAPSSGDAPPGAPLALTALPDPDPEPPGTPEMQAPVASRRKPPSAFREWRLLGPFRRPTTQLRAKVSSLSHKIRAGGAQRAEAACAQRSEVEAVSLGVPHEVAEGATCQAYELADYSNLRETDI
Experimental: as §1, §2

human α1a-adrenoceptor = biological target: T3, human α1a-adrenoceptor (Homo sapiens, UniProt P35348); assay: biochemical
T3 sequence (P35348 1-466): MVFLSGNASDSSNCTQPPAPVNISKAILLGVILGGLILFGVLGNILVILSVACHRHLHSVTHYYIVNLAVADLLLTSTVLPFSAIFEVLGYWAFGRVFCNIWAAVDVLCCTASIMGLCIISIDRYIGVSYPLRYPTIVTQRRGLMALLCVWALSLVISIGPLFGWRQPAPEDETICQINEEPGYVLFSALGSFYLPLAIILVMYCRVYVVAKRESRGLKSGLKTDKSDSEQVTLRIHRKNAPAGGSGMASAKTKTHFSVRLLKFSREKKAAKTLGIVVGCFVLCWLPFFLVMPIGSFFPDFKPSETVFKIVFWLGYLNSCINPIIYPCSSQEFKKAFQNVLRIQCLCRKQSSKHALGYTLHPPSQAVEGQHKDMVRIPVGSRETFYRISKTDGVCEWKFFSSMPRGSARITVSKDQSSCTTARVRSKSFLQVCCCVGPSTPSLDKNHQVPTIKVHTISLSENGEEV

bovine α1a-adrenoceptor = biological target: T4, bovine α1a-adrenoceptor (Bos taurus, UniProt P18130); assay: [3H]Prazosin binding, bovine α1a-adrenoceptor in COS-7 cell membranes
T4 construct: expressed in transfected cells; host or cells: COS-7 cells (transient), membranes
T4 sequence (P18130 1-466): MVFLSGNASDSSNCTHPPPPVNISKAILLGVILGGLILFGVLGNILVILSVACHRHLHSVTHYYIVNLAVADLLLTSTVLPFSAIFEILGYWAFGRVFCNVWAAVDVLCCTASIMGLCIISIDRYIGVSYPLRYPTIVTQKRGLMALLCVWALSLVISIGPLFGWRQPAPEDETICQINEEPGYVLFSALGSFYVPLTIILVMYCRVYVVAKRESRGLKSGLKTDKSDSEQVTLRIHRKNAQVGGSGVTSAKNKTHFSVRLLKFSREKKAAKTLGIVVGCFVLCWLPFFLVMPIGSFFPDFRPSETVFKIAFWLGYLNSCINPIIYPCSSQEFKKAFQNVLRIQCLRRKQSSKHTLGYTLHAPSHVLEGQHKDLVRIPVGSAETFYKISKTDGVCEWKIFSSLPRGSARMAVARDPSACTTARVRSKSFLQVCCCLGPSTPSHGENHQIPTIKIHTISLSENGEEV
Experimental: The incubation was stopped by addition of ice-cold Tris buffer and rapid filtration through 0.2% polyethyleneimine pretreated Whatman GF/B or Schleicher & Schuell GF52 filters.
as §2

anaesthetised dogs [1] = settings: dog, in vivo
Experimental: (§3) Male beagle dogs were anaesthetised with pentobarbital sodium (i.v. Nembutal, 35 mg/kg for induction and 4 mg/kg/h for maintenance) and intubated with an endotracheal cuffed tube to facilitate free ventilation. A collateral of the left femoral vein was cannulated with a PE catheter for infusion of the anaesthetic. Systemic BP was monitored via a Mikro-tip 6F (Millar Instruments) pressure transducer introduced into the aortic arch through the right common carotid artery. ICP was measured by means of a 20-gauge needle placed into the left or right corpus cavernosum and the same needle was used for intracavernous injection of the drugs. The needle was attached to a catheter filled with heparinized saline (25 IU/mL). […] The compounds to be tested were injected intracavernously in a volume of 0.5 ml and, after each injection, the needle was flushed with 0.5 ml of saline. The vehicles for compound dissolution were tested before the first dose of each drug. The compounds were administered in a cumulative way, with a 30-minute interval between doses. ICP (mmHg) was measured at the peak effect after the administration of the compounds. The duration of tumescence (DT, min) was measured from the beginning of the rise of ICP over its basal value up to the return to baseline. The systolic blood pressure and diastolic blood pressure (mmHg) were measured at the peak effect after the administration of compounds, in order to evaluate the effects of the compounds on BP independently from the effects on ICP. Moreover, the systolic blood pressure was measured at the time of maximal ICP value after intracavernous injection, to evaluate the ICP/BP ratios. […] The data were reported as mean ±s.e. of the mean, or percent variation (±s.e.) of the basal values.

anaesthetised rats = assay: Intracavernous and blood pressure recording in rats; assay type: in vivo, rat; settings: for decrease of blood pressure: after injection of 1000 μg/kg intracavernous; for effect on ICP (in words): intracavernous injection; for hypotension (in words, FIG. 1): marked hypotension defined as decrease of blood pressure equal to or higher than 40%
Experimental: Rats were anaesthetised by an intraperitoneal injection of urethane (1.5 g/kg in sterile saline) and placed on an homeothermic blanket. Their temperature was maintained at 37° C. Rats were tracheotomized to facilitate spontaneous breathing and to prevent aspiration of saliva. A catheter filled with heparinized saline (25 IU/ml) was placed into the carotid to record mean blood pressure (BP, mmHg). The penis was desheathed and the corpora cavernosa were exposed. A 25-gauge stainless-steel needle was inserted into one corpus cavernosum to record intracavernous pressure (ICP in mmHg). […] Pressure catheters were connected to pressure transducers (Model 750, Elcomatic Ltd, Glasgow, UK).
Following a resting period of 10 minutes, the compound solvent was delivered intracavernously (50 μl/injection). Then, increasing doses of one compound were injected every ten minutes by the same route. Five injections (one solvent plus four cumulative doses) were performed in each rat, and five rats were used for the study of one compound. For each injection and for each compound, mean BP averaged over the ten minutes following the injection was measured. The maximal ICP value reached during the ten-minute period following an injection was also recorded. In these experiments, all the compounds tested were dissolved and diluted in propylene glycol-Sorensen solvent.

anaesthetised dogs [2] = assay: Intracavernous and blood pressure recording in dogs; settings: for increase of ICP in comparison with basal ICP values: 1000 μg/kg (1000 μg given for prazosin, phentolamine) intracavernous; for effect on ICP (in words): intracavernous injection
Experimental: as §3

Compound | Ki (human α1b-adrenoceptor) | hypotension (in words) (anaesthetised dogs [1]) | BP (anaesthetised rats; 10 μg/kg intracavernous) | ICP (anaesthetised rats; 10 μg/kg intracavernous) | BP (anaesthetised rats; 30 μg/kg intracavernous) | ICP (anaesthetised rats; 30 μg/kg intracavernous) | BP (anaesthetised rats; 100 μg/kg intracavernous) | ICP (anaesthetised rats; 100 μg/kg intracavernous) | BP (anaesthetised rats; 300 μg/kg intracavernous) | ICP (anaesthetised rats; 300 μg/kg intracavernous) | BP (anaesthetised rats; 1000 μg/kg intracavernous) | ICP (anaesthetised rats; 1000 μg/kg intracavernous) | decrease of blood pressure (anaesthetised rats) | effect on ICP (in words) (anaesthetised rats) | hypotension (in words, FIG. 1) (anaesthetised rats) | ICP (anaesthetised dogs [2]; 30 μg/kg intracavernous) | ICP (anaesthetised dogs [2]; 300 μg/kg intracavernous) | increase of ICP in comparison with basal ICP values (anaesthetised dogs [2]) | ICP (anaesthetised dogs [2]; 1000 μg/kg intracavernous) | effect on ICP (in words) (anaesthetised dogs [2]) | other results
COc1cc2nc(N3CCN(C(=O)COc4c(OC)cccc4C(C)C)C4CCCCC43)nc(N)c2cc1OC (racemic) [Example 4, 4-Amino-6,7-dimethoxy-2-[(±)-4-(2-isopropyl-6-methoxyphenoxyacetyl)-cis-octahydro-1-quinoxalinyl]quinazoline hydrochloride.2.5H2O] | 0.16 nM |  |  |  |  |  |  |  |  |  |  |  |  |  |  |  |  |  |  |  | 
COc1cc2nc(N3CCN(C(=O)c4ccc(C)o4)C4CCCCC43)nc(N)c2cc1OC (racemic) [Example 5, 4-Amino-6,7-dimethoxy-2-[(±)-4-(5-methyl-2-furoyl)-cis-octahydro-1-quinoxalinyl]-quinazoline hydrochloride.2.5H2O] | 0.24 nM |  |  |  |  |  |  |  |  |  |  |  |  |  |  |  |  |  |  |  | 
COc1cc2nc(N3CCN(C(=O)OCc4ccccc4)C4CCCCC43)nc(N)c2cc1OC (racemic) [Example 7, 4-Amino-6,7-dimethoxy-2-[(±)-4-benzyloxycarbonyl-cis-octahydro-1-quinoxalinyl]-quinazoline hydrochloride.0.75H2O] | 0.65 nM |  |  |  |  |  |  |  |  |  |  |  |  |  |  |  |  |  |  |  | 
COc1cc2nc(N3CCN(C(=O)c4ccco4)[C@H](C(=O)NC(C)(C)C)C3)nc(N)c2cc1OC [Compound C, 4-Amino-6,7-dimethoxy-2-[(3S)-3-(t-butylcarbamoyl)-4-(2-furoyl)-1-piperazinyl]-quinazoline] | 1.76 nM |  |  |  |  |  |  |  |  |  |  |  |  |  |  |  |  |  |  |  | Ki (human α1d-adrenoceptor): 25.1 nM; Ki (human α1a-adrenoceptor): 94.1 nM
Cc1ccc(N(CC2=NCCN2)c2cccc(O)c2)cc1 [Phentolamine] |  | relevant hypotension | 79.8 ± 7.3 mmHg | 12.6 ± 1.7 mmHg | 72.2 ± 4.3 mmHg | 10.1 ± 1.4 mmHg | 61.1 ± 7.0 mmHg | 10.5 ± 1.4 mmHg | 63.0 ± 2.2 mmHg | 12.5 ± 2.3 mmHg | 59.8 ± 3.6 mmHg | 20.6 ± 2.1 mmHg | 30% | did not modify ICP up to 300 μg/kg | marked hypotension | 20.0 ± 2.3 mmHg | 16.0 ± 2.3 mmHg | 43 mmHg | 62.7 ± 24.3 mmHg | increased ICP at doses that induced substained hypotension | Ki (bovine α1a-adrenoceptor): 3.22 nM; ICP (anaesthetised dogs [2]; 10 μg/kg intracavernous): 24.0 ± 0.0 mmHg; DT (duration of tumescence) (anaesthetised dogs [2]; 1000 μg/kg intracavernous): 4.2 ± 2.1 min
COc1cc2nc(N3CCN(C(=O)c4ccco4)CC3)nc(N)c2cc1OC [Prazosin] |  | marked hypotension | 59.4 ± 7.7 mmHg | 20.1 ± 6.4 mmHg | 60.0 ± 7.4 mmHg | 14.9 ± 3.3 mmHg | 56.8 ± 7.9 mmHg | 19.0 ± 6.6 mmHg | 41.3 ± 3.0 mmHg | 18.9 ± 6.8 mmHg | 43.7 ± 4.1 mmHg | 26.9 ± 3.5 mmHg | 41% | unable to elicit any ICP increase | marked hypotension | 25.5 ± 6.3 mmHg | 37.5 ± 5.0 mmHg | 36 mmHg | 52.5 ± 5.0 mmHg | increased ICP at doses that induced substained hypotension | ICP (anaesthetised dogs [2]; 100 μg/kg intracavernous): 27.0 ± 8.7 mmHg; decrease of diastolic blood pressure (anaesthetised dogs [2]; 1000 μg intracavernous): 71 mmHg

Source: patent US6953800B2, “Use of selective antagonists of the α1B-adrenergic receptor for improvement of sexual dysfunction” (Recordati S.A. Chemical, priority 1999, dated 2005)
